# Where two headings read alike, the source gives them in different places.
# What was measured:
# [1] = tested on: MDA-MB-231 breast cancer cell; assay: MTT cell viability assay, MDA-MB-231 breast cancer cell; assay type: cell-based, human
# Method: (§1) Cell viability was evaluated by measuring the reduction in MTT to yield blue formazan. Cells were cultured in 96-well plates, allowed to attach overnight, and then treated with compounds. After treatment, MTT solution (1 mg/ml) was added to each well, and plates were incubated for another 4 h.
# [2] = tested on: HCT-116 colon cancer cell; assay: MTT cell viability assay, HCT-116 colon cancer cell; assay type: cell-based
# Method: as §1, with “h. Medium were removed, blue formazan was dissolved in DMSO, and the absorbance was read at 570 nm^20.” for “h.”
# PC3 prostate cancer cell = assay: MTT cell viability assay, PC3 prostate cancer cell; assay type: cell-based
# Method: as §1, with “h. Medium were removed, blue formazan was dissolved in DMSO, and the absorbance was read at 570 nm^20.” for “h.”
# [3] = MDA-MB-231, treated 24 hours, read-out: IC50 24 hours
# [4] = MDA-MB-231, treated 48 hours, read-out: IC50 48 hours
# [5] = MDA-MB-231, treated 72 hours, read-out: IC50 72 hours
# [6] = HCT-116, treated 24 hours, read-out: IC50 24 hours
# [7] = HCT-116, treated 48 hours, read-out: IC50 48 hours
# [8] = HCT-116, treated 72 hours, read-out: IC50 72 hours
# [9] = PC-3, treated 24 hours, read-out: IC50 24 hours
# [10] = PC-3, treated 48 hours, read-out: IC50 48 hours
# [11] = PC-3, treated 72 hours, read-out: IC50 72 hours
# [12] = Homo sapiens, MDA-MB-231, 24 h, MDA-MB-231, treated 24 hours, read-out: IC50 24 hours
# [13] = Homo sapiens, MDA-MB-231, 48 h, MDA-MB-231, treated 48 hours, read-out: IC50 48 hours
# [14] = Homo sapiens, MDA-MB-231, 72 h, MDA-MB-231, treated 72 hours, read-out: IC50 72 hours
# [15] = Homo sapiens, HCT-116, treated 24 hours, read-out: IC50 24 hours
# [16] = Homo sapiens, HCT-116, treated 48 hours, read-out: IC50 48 hours
# [17] = Homo sapiens, HCT-116, treated 72 hours, read-out: IC50 72 hours
"IC50 [1, 5] [µM]",IC50 (PC3 prostate cancer cell; [9]) [µM],IC50 (PC3 prostate cancer cell; [10]) [µM],IC50 (PC3 prostate cancer cell; [11]) [µM],"IC50 [1, 12] [µM]","IC50 [1, 13] [µM]","IC50 [1, 14] [µM]","IC50 [2, 15] [µM]","IC50 [2, 16] [µM]","IC50 [2, 17] [µM]",Structure (SMILES),"IC50 [1, 3] [µM]","IC50 [1, 4] [µM]","IC50 [2, 6] [µM]","IC50 [2, 7] [µM]","IC50 [2, 8] [µM]"
2,6.91 ± 0.67,5.12 ± 0.29,4.21 ± 0.14,,,,,,,"CCC(CO)(CO)C(=O)Oc1ccc(/C=C/C(=O)/C=C(O)/C=C/c2ccc(OC(=O)C(CC)(CO)CO)c(OC)c2)cc1OC [Compound 22a, ((1E,3Z,6E)-3-Hydroxy-1-oxohepta-1,3,6-triene-1,7-diyl)bis(2-methoxy-4,1-phenylene) bis(2,2-bis(hydroxymethyl)butanoate)]",4.71 ± 0.29,2.56 ± 0.18,5.82 ± 0.56,2.4 ± 0.32,1.34 ± 0.04
3.85,15.9 ± 2.23,8.74 ± 0.01,7.03 ± 0.12,,,,,,,CCC(CO)(CO)C(=O)Oc1cc(/C=C/C(=O)/C=C(O)/C=C/c2ccc(OC)c(O)c2)ccc1OC [Compound 25],9.64 ± 0.07,4.94 ± 0.03,7.62 ± 0.41,4.77 ± 0.1,3.64 ± 0.03
,67.1 ± 3.39,53.9 ± 3.01,30.2 ± 2.37,16.6 ± 3.04,8.6 ± 0.74,7.78 ± 0.09,8.94 ± 0.66,7.11 ± 0.07,6.27 ± 0.1,"CC(CO)(CO)C(=O)Oc1ccc(/C=C/C(=O)CC(=O)/C=C/c2ccc(OC(=O)C(C)(CO)CO)c(OC(F)(F)F)c2)cc1OC(F)(F)F [Compound 28, ((1E,6E)-3,5-dioxohepta-1,6-diene-1,7-diyl)bis(2-(trifluoromethoxy)-4,1-phenylene) bis(3-hydroxy-2-(hydroxymethyl)-2-methylpropanoate)]",,,,,
,37 ± 0.56,29.7 ± 2.83,8.1 ± 1.56,9.48 ± 0.44,7.79 ± 0.61,7.22 ± 0.41,7.43 ± 0.1,4.69 ± 0.49,4.38 ± 0.26,"CCC(CO)(CO)C(=O)Oc1ccc(/C=C/C(=O)CC(=O)/C=C/c2ccc(OC(=O)C(CC)(CO)CO)c(OC(F)(F)F)c2)cc1OC(F)(F)F [Compound 29, ((1E,6E)-3,5-dioxohepta-1,6-diene-1,7-diyl)bis(2-(trifluoromethoxy)-4,1-phenylene) bis(2,2-bis(hydroxymethyl)butanoate)]",,,,,
,7.79 ± 1.42,7.7 ± 0.87,3.14 ± 0.33,17.5 ± 2.85,8.9 ± 1.28,6.19 ± 0.04,8.34 ± 0.83,4.77 ± 0.44,5.18 ± 0.76,"COc1cc(/C=C/C(=O)/C=C(O)/C=C/c2cc(OC)c(OC(=O)C(C)(CO)CO)c(OC)c2)cc(OC)c1OC(=O)C(C)(CO)CO [Compound 30, ((1E,3Z,6E)-3-hydroxy-5-oxohepta-1,3,6-triene-1,7-diyl)bis(2,6-dimethoxy-4,1-phenylene) bis(3-hydroxy-2-(hydroxymethyl)-2-methylpropanoate)]",,,,,
,19.9 ± 1.27,7.49 ± 0.18,4.14 ± 1.1,8.68 ± 0.07,7.4 ± 0.63,3.82 ± 0.03,7.21 ± 0.21,3.67 ± 0.01,3.51 ± 0.01,"CCc1cc(/C=C/C(=O)CC(=O)/C=C/c2cc(CC)c(OC(=O)C(C)(CO)CO)c(CC)c2)cc(CC)c1OC(=O)C(C)(CO)CO [Compound 31, ((1E,6E)-3,5-dioxohepta-1,6-diene-1,7-diyl)bis(2,6-diethyl-4,1-phenylene) bis(3-hydroxy-2-(hydroxymethyl)-2-methylpropanoate)]",,,,,
,17.1 ± 1.74,11.5 ± 0.96,6.7 ± 0.75,28.5 ± 5.29,,4.9,14.5 ± 1.01,,3.92 ± 0.24,"C#CCC(CC#C)(C(=O)/C=C/c1ccc(OC(=O)C(C)(CO)CO)c(OC)c1)C(=O)/C=C/c1ccc(OC(=O)C(C)(CO)CO)c(OC)c1 [Compound 35d, ((1E,6E)-3,5-Dioxo-4,4-di(prop-2-yn-1-yl)hepta-1,6-diene-1,7-diyl)bis(2-methoxy-4,1-phenylene) bis(3-hydroxy-2-(hydroxymethyl)-2-methylpropanoate)]",,,,,
2.98 ± 0.09,17.1 ± 1.81,7.49 ± 0.33,3.62 ± 0.11,7.74 ± 0.41,3.13 ± 0.04,2.89,4.12 ± 0.1,3.43 ± 0.2,2.63 ± 0.06,"CC(CO)(CO)C(=O)Oc1ccc(/C=C/C(=O)C(C)(C)C(=O)/C=C/c2ccc(OC(=O)C(C)(CO)CO)cc2)cc1 [Compound 36, ((1E,6E)-4,4-Dimethyl-3,5-dioxohepta-1,6-diene-1,7-diyl)bis(4,1-phenylene) bis(3-hydroxy-2-(hydroxymethyl)-2-methylpropanoate)]",,,,,
,2.86 ± 0.83,1.59 ± 0.24,1.84 ± 0.12,7.6 ± 0.94,2.71 ± 0.23,2.7,5.9 ± 1.87,2.71 ± 0.39,1.26 ± 0.04,"COc1ccc(/C=C/C(=O)C(C)(C)C(=O)/C=C/c2ccc(OC)c(OC(=O)C(C)(CO)CO)c2)cc1OC(=O)C(C)(CO)CO [Compound 37, ((1E,6E)-4,4-Dimethyl-3,5-dioxohepta-1,6-dien-1,7-diyl)bis(2-methoxy-5,1-phenylene) bis(3-hydroxy-2-(hydroxymethyl)-2-methylpropanoate)]",,,,,
,46.5 ± 0.48,34.9 ± 0.2,32.7 ± 0.56,47.3 ± 1.31,21.1 ± 1.01,17.5 ± 1.62,39.59 ± 0.23,18.4 ± 0.62,9.86 ± 0.01,"COc1cc(/C=C/C(=O)CC(=O)/C=C/c2ccc(OC(=O)C(CO)(CO)CO)c(OC)c2)ccc1O [Compound 38a, 4-((1E,6E)-7-(4-hydroxy-3-methoxyphenyl)-3,5-dioxohept-1,6-den-1-yl)-2-methoxyphenyl 3-hydroxy-2,2-bis(hydroxymethyl)propanoate]",,,,,
,≥ 100,67.5 ± 1.25,63.94 ± 0.47,82.6 ± 1.67,64.8 ± 2.39,55.3 ± 3.2,75 ± 3.1,61.3 ± 2.85,43.7 ± 1.36,COc1cc(/C=C/C(=O)CC(=O)/C=C/c2ccc(OC(=O)C(CO)(CO)COC(=O)C(CO)(CO)CO)c(OC)c2)ccc1O [Compound 38b],,,,,

Structure (SMILES),"IC50 [1, 5] [µM]",IC50 (PC3 prostate cancer cell; [9]) [µM],IC50 (PC3 prostate cancer cell; [10]) [µM],IC50 (PC3 prostate cancer cell; [11]) [µM],"IC50 [1, 12] [µM]","IC50 [1, 13] [µM]","IC50 [1, 14] [µM]","IC50 [2, 15] [µM]","IC50 [2, 16] [µM]","IC50 [2, 17] [µM]","IC50 [1, 3] [µM]","IC50 [1, 4] [µM]","IC50 [2, 6] [µM]","IC50 [2, 7] [µM]","IC50 [2, 8] [µM]"
"O=C(/C=C/c1ccc(O)cc1)CC(=O)/C=C/c1ccc(O)cc1 [Bisdemethoxycurcumin, bisdemethoxycurcumin, reference compound]",27.5 ± 0.42,> 100,28.5 ± 1.09,26.9 ± 4.36,,,,,,,> 100,26.92 ± 0.19,> 100,29.6 ± 0.78,23.7 ± 2.43
"COc1cc(/C=C/C(=O)C(Cc2ccccc2)(Cc2ccccc2)C(=O)/C=C/c2ccc(OC(=O)C(C)(CO)CO)c(OC)c2)ccc1OC(=O)C(C)(CO)CO [Compound 35c, ((1E,6E)-4,4-Dibenzyl-3,5-dioxohepta-1,6-dine-1,7-diyl)bis(2-methoxy-4,1-phenylene) bis(3-hydroxy-2-(hydroxymethyl)-2-methylpropanoate)]",2.11 ± 0.04,17.59 ± 0.14,9.09 ± 0.99,7.28 ± 0.5,,,,,,,6.03 ± 2.52,2.45 ± 0.24,12.9 ± 2.03,7.66 ± 0.61,3.88 ± 0.16
"COc1cc(/C=C/C(=O)C(COC(C)=O)(COC(C)=O)C(=O)/C=C/c2ccc(OC(=O)C(C)(CO)CO)c(OC)c2)ccc1OC(=O)C(C)(CO)CO [Compound 41, ((1E,6E)-4,4-bis(acetoxymethyl)-3,5-dioxohepta-1,6-diene-1,7-diyl)bis(2-methoxy-4,1-phenylene) bis(3-hydroxy-2-(hydroxymethyl)-2-methylpropanoate)]",,65.2 ± 1.43,47.4 ± 2.65,32.8 ± 2.7,57.6 ± 1.59,,3.69 ± 0.02,9.52 ± 0.06,,5.4 ± 0.02,,,,,

# Source: patent US10787413B2, “Derivatives of curcuminoids and use thereof as an anticancer agent” (CHINA MEDICAL UNIVERSITY, priority 2016, dated 2020)
